We go through four molecules from patent publication US10851102B2, “Imidazole and triazole containing bicyclic compounds as JAK inhibitors” (THERAVANCE BIOPHARMA R&D IP, LLC, priority 2019, dated 2020).

pKi: −log10 of the molar value.

One data set deals with JAK2 (Homo sapiens (Human), UniProt O60674). Description: Biochemical JAK and Tyk2 kinase assays (LanthaScreen): JAK2. Particulars: 1 h pre-incubation, ATP at Km, pIC50 converted to pKi by Cheng-Prusoff; for Ki: read-out: JAK 2 (pKi) (converted). In a few lines: (§1)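 TR-FRET (520/495 nm ratio) detection of STAT1 pTyr701 phosphorylation on a GFP-STAT1 peptide by GST-tagged JAK kinase. Reactions ran 1 h at room temperature with 1% DMSO after 1 h compound–enzyme–substrate preincubation. pIC50 values converted to pKi via Cheng-Prusoff.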
Chain of JAK2 (O60674 whole entry): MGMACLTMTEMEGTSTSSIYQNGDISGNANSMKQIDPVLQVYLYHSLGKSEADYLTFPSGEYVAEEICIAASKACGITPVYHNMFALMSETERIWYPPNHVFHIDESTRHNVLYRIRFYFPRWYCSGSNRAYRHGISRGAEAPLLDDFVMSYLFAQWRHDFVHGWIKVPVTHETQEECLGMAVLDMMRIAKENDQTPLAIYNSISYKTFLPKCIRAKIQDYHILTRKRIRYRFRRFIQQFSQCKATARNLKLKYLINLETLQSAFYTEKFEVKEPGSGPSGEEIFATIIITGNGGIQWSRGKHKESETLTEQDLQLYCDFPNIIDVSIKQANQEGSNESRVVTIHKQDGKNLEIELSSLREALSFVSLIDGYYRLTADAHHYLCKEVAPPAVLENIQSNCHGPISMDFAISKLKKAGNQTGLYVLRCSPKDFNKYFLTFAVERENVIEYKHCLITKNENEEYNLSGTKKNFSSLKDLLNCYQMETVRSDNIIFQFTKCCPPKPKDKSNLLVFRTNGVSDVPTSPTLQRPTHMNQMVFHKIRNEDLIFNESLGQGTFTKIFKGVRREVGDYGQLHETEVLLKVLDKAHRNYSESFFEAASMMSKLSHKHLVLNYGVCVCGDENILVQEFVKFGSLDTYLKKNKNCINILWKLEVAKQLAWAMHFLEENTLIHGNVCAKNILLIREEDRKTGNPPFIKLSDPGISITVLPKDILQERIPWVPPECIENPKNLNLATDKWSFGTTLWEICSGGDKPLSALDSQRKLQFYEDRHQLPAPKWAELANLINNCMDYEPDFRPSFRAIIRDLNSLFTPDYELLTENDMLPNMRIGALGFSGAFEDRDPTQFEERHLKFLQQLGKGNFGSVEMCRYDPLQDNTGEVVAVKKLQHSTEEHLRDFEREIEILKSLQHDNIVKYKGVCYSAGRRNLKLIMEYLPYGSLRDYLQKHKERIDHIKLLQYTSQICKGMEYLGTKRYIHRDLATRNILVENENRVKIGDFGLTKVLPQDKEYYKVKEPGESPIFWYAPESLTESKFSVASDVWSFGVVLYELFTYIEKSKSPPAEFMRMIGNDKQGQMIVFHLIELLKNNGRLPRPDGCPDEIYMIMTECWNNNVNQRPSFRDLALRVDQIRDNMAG
On the technique in general: TR-FRET usually uses a lanthanide donor and a delayed reading to cut background.

The next data set addresses JAK1 (Homo sapiens (Human), UniProt P23458). Description: Biochemical JAK and Tyk2 kinase assays (LanthaScreen): JAK1. Particulars: 1 h pre-incubation, ATP at Km; pIC50 converted to pKi by Cheng-Prusoff. The method in brief: as §1
Data set [1] deals with IL-2 stimulated pSTAT5 in Tall-1 T cells (JAK3). Description: Cellular JAK3 potency assay: inhibition of IL-2 stimulated pSTAT5 in Tall-1 T cells. The data set is classed as cell-based. Particulars: IL-2 300 ng/ml, pSTAT5 AlphaLisa, Tall-1 human T cell line; read-out: Tall-1 (pIC50) (converted). In a few lines:
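Human Tall-1 T cells (45,000/well) preincubated with compound 1 h at 37 °C, then stimulated with IL-2 (final 300 ng/ml) for 30 min. Lysates read for pSTAT5 (Tyr694/699) by AlphaLISA luminescence. IC50 from signal-versus-concentration curves, reported as pIC50 (mean±SD).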
In general terms: In Alpha technology, singlet oxygen from a donor bead excites a nearby acceptor bead.

In data set [2] the test system is IL-2 stimulated pSTAT5 in CD4+ T cells isolated from murine splenocytes (JAK3). Description: Inhibition of IL-2 stimulated pSTAT5 in CD4+ T cells isolated from murine splenocytes. The data set is classed as cell-based. Conditions: Mus musculus, IL-2 7 ng/ml, read-out: pIC50, inhibition of IL-2 stimulated pSTAT5 (converted). The protocol: Assay 3: Inhibition of IL-2 Stimulated pSTAT5 in CD4+ T Cells Isolated from Murine Splenocytes
The potency of test compounds for inhibition of interleukin-2 (IL-2) stimulated STATS phosphorylation was measured in the CD4+ T cells isolated from murine splenocytes using AlphaLisa. Because IL-2 signals through JAK3, this assay provides a measure of JAK3 cellular potency in mouse.
Phosphorylated STATS was measured via the AlphaLISA SureFire Ultra pSTAT5 (Tyr694/699) kit (PerkinElmer).
CD4+ T cells were isolated from murine splenocytes via negative selection on a magnetic column (Miltnyi Biotec) and re-suspended in assay media (phenol red-free DMEM (Life Technologies) supplemented with 10% FBS (ATCC)). Cells were seeded at 50,000 cells/well in assay media (2 μL/well). Compounds were serially diluted in DMSO and diluted to 2× final concentration in assay media. Compound was added (4 μl/well) and the cells incubated at 37° C., 5% CO2 for 1 hour, followed by the addition of IL-2 (R&D Systems; final concentration 7 ng/ml) in pre-warmed assay media (2 μL) for 30 minutes. After cytokine stimulation, cells were lysed with 2 μl of 5× AlphaLisa Lysis Buffer (PerkinElmer). The lysate was shaken at 900 rpm for 10 minutes at room temperature (RT). Phosphorylated STATS was measured via the pSTAT5 AlphaLisa kit (PerkinElmer). Freshly prepared acceptor bead mixture was dispensed onto lysate (5 ul) under green filtered <100 lux light. Plates were shaken at 900 rpm for 2 mins, briefly spun down, and incubated for 2 hrs at RT in the dark. Donor beads were dispensed (5 μl) under green filtered <100 lux light. Plates were shaken at 900 rpm for 2 mins, briefly spun down, and incubated overnight at RT in the dark. Luminescence was measured with excitation at 689 nm and emission at 570 nm using an EnVision plate reader (PerkinElmer) under green filtered <100 lux light.
To determine the inhibitory potency of test compounds in response to IL-2, the average emission intensity of beads bound to pSTATS was measured in primary CD4+ T cells isolated from murine splenocytes. IC50 values were determined from analysis of the inhibition curves of signal intensity vs compound concentration. Data are expressed as pIC50 (negative decadic logarithm IC50) values (mean±standard deviation).

In the next data set the target is Tyk2 (Homo sapiens (Human), UniProt P29597). Description: Biochemical JAK and Tyk2 kinase assays (LanthaScreen): Tyk2. Conditions: 1 h pre-incubation, ATP at Km; pIC50 converted to pKi by Cheng-Prusoff. In a few lines:
as §1

In another data set the target is JAK3 (Homo sapiens (Human), UniProt P52333). Description: Biochemical JAK and Tyk2 kinase assays (LanthaScreen): JAK3. Particulars: for JAK3 (pKi)-JAK1 (pKi): difference of pKi values, selectivity JAK3 over JAK1. In a few lines:
as §1

The nature of data set [3]: Colon and plasma mouse pharmacokinetics. It counts as in vivo. Conditions: mouse; ratio of colon AUC to plasma AUC; male Balb/c mice, 10 mg/kg PO. The method, then:
Assay 6: Colon and Plasma Mouse Pharmacokinetics
6 male Balb/c mice were administered 10 mg/kg of compound in 1% HPMC+0.1% Tween-80 by PO administration. At 0.5, 2 and 6 hours after dose administration, animals were anesthetized, and terminal blood samples were collected by cardiac puncture, followed by collection of colon contents and colon tissue.
Blood samples were collected into K2EDTA and stored on wet ice until processed to plasma by centrifugation (12,000 rpm at 4° C.). Plasma samples were transferred to cluster tubes and placed on dry ice prior to freezer storage. The colon contents from each animal were collected at each terminal blood collection time point. The colon tissues were flushed with saline and patted dry. The colon and colon content tissues were homogenized using sterile water containing 0.1% formic acid 9:1 (water:tissue, v/w). The homogenized tissues and colon contents were transferred to cluster tubes and placed on dry ice prior to freezer storage. All samples were analyzed using LC/MS/MS against analytical standards.
The composite pharmacokinetic parameters of the compounds were determined by non-compartmental analysis using Phoenix WinNonlin Version 6 (Certara, St. Louis, Mo.) and using mean values from 2 animals/time point. For plasma concentrations below the quantification limit (BQL), the lowest concentration measurable or the BLOQ (below limit of quantification) was used.
A colon to plasma ratio was determined as the ratio of the colon AUC to the plasma AUC.

A further data set relates to Caco-2 cell monolayers. As to the kind of experiment: Caco-2 permeation assay. It counts as in vitro ADME, human. Particulars: 5 μM, A to B, + Verapamil 25 μM, 120 minutes. An excerpt: Assay 5: Caco-2 Permeation Assay
In general terms: Caco-2 cells form a polarised layer with tight junctions and transporters.

Where [4] appears, read: 1 h pre-incubation, ATP at Km, pIC50 converted to pKi by Cheng-Prusoff.

Chain of JAK3 (P52333 whole entry): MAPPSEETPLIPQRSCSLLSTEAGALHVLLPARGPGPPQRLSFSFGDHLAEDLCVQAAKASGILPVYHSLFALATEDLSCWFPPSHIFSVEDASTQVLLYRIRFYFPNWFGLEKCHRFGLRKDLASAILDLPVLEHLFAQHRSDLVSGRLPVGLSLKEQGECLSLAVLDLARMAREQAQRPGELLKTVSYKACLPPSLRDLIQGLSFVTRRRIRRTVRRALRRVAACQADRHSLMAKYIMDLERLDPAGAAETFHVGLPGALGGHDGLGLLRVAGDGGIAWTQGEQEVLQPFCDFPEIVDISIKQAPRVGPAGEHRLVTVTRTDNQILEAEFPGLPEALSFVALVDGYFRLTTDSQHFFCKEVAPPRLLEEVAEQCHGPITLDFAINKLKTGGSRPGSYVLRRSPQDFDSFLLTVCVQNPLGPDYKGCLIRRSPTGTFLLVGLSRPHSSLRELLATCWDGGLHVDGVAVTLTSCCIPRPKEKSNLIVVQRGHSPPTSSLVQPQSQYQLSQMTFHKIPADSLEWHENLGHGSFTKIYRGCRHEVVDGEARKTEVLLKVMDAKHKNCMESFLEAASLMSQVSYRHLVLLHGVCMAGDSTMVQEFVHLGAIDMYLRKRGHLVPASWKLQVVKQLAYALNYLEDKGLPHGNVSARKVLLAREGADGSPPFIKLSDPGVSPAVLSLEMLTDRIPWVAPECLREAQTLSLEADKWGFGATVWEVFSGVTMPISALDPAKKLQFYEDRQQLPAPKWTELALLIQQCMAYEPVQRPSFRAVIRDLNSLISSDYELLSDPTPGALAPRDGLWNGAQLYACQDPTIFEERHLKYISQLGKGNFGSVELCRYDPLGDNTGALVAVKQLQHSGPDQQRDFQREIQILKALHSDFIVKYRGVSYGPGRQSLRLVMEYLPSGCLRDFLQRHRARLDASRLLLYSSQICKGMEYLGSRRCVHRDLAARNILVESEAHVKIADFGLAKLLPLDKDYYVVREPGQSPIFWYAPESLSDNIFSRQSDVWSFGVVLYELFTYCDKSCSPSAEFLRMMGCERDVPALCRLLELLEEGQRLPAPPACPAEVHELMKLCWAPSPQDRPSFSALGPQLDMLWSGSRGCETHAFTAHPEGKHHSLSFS
Chain of Tyk2 (P29597 whole entry): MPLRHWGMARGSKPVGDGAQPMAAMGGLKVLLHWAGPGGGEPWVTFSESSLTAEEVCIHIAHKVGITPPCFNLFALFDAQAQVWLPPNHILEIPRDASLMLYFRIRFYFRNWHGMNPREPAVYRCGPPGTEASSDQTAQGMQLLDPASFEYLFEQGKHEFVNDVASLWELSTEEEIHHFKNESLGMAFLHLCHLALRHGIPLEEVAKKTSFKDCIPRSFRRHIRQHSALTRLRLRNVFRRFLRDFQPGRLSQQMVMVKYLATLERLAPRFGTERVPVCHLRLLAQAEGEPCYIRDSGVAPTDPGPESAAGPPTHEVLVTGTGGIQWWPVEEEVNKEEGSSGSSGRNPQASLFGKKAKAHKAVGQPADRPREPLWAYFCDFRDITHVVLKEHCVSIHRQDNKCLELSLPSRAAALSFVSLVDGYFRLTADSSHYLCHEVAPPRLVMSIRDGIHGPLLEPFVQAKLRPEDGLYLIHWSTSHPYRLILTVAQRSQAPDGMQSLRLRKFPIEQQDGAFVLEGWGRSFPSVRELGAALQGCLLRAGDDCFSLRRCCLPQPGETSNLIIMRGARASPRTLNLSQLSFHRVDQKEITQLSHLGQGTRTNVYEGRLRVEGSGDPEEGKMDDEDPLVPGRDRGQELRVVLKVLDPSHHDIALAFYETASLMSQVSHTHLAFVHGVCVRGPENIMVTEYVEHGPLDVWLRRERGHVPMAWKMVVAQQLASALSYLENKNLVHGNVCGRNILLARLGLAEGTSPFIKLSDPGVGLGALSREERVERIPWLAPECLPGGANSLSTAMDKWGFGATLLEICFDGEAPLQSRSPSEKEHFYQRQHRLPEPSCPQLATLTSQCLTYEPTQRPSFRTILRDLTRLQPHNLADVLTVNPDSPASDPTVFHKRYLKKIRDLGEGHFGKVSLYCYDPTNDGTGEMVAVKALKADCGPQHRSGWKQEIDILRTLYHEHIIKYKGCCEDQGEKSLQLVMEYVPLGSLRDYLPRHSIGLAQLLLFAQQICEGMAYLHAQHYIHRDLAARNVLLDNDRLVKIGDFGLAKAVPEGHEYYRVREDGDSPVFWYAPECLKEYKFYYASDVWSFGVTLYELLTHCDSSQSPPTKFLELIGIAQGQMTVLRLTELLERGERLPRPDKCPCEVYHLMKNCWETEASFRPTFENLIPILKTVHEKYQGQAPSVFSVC
Chain of JAK1 (P23458 whole entry): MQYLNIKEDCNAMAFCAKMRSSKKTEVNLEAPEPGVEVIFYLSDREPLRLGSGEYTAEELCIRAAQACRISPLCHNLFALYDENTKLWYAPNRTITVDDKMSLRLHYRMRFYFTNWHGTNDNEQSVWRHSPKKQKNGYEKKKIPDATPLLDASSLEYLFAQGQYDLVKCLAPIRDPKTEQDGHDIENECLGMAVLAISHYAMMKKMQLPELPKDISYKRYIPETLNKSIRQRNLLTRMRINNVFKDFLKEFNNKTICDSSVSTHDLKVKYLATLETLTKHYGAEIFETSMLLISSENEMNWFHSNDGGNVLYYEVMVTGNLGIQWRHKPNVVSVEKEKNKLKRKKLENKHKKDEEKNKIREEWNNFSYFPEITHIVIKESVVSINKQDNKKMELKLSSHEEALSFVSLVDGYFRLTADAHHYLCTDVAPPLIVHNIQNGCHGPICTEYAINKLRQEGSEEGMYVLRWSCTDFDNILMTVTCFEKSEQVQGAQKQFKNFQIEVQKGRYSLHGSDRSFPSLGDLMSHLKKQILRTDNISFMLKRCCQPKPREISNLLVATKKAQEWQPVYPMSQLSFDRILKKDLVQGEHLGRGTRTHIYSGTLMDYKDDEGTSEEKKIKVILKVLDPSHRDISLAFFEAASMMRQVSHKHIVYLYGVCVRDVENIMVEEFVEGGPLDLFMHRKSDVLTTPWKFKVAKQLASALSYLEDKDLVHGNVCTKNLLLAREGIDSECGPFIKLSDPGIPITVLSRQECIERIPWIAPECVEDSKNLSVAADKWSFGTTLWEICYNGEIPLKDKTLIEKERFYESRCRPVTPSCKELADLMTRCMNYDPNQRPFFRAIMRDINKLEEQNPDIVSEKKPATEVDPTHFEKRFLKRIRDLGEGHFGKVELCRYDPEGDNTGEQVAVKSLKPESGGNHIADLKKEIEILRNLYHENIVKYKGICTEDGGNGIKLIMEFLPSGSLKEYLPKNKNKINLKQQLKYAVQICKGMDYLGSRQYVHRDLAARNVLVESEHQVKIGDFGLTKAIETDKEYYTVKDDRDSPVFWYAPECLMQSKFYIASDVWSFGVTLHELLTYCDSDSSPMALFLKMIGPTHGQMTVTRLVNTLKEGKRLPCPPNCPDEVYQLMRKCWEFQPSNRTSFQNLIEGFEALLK

In general, Kp refers to the ratio of the level in a tissue or fluid to that in plasma or blood. Consider `C=CC(=O)N1CC[C@@H](Oc2cc(-c3ccc(O)cc3)cn3cncc23)C[C@H]1C` [Example 15, 1-((2R,4R)-4-((6-(4-hydroxyphenyl)imidazo[1,5-a]pyridin-8-yl)oxy)-2-methylpiperidin-1-yl)prop-2-en-1-one], for which, on JAK2, the Ki was 10 to 100 nM. Besides, the “JAK 1 (pKi)” value at JAK1 is listed as “E (E represents a pKi value of 7 or below (Ki of 100 nM or above))”. For the same molecule, the values for the IC50 in data set [1] and in data set [2] were not above 31.6 nM and less than 1000 nM, respectively. Also, the “Tyk 2 (pKi)” value on Tyk2 was “E (E represents a pKi value of 7 or below (Ki of 100 nM or above))”. For the same molecule, the “JAK 3 (pKi)” value at JAK3 (setting [4]) is on record as “A (A represents a pKi value≥10 (Ki≤0.1 nM))”. The “JAK3 (pKi)-JAK1 (pKi)” value on JAK3 was “A (A represents a value of 3 or above)”. For the same molecule, the Kp in data set [3] was more than 30.

A word on the pKi: it is −log10 of the Ki, conventionally taken in molar units. High values mean a small Ki, low ones a large Ki. As to `C=CC(=O)N1CCC[C@H](Oc2cc(-c3cc(F)c(O)cc3CC)cn3cncc23)C1` [Example 16], the Ki was 10 to 100 nM at JAK2 and 0.1 to 1 nM at JAK3 (1 h pre-incubation, ATP at Km, pIC50 converted to pKi by Cheng-Prusoff, read-out: JAK 3 (pKi) (converted)). In addition, the pKi at JAK1 is 7.00 to 8.00. For the same molecule, the IC50 in data set [1] is 31.6 to 200 nM. Further, the “Tyk 2 (pKi)” value on Tyk2 is recorded as “E (E represents a pKi value of 7 or below (Ki of 100 nM or above))”. For the same molecule, on JAK3, the “JAK3 (pKi)-JAK1 (pKi)” value is reported as “B (B represents a value of 2.3 to 3)”. Moreover, in the data set with Caco-2 cell monolayers, the “Caco Kp 10^−6 cm/sec” value is “C (C represents a value between 10×10^−6 and 25×10^−6 cm/sec)”. Further, the concentration ratio (Kp) in data set [3] was more than 200.

In the case of `CCc1cc(O)c(F)cc1-c1cc(OCC2CN(C(=O)/C=C/CN(C)C)C2)c2cncn2c1` [Example 24], on JAK2, the “JAK 2 (pKi)” value was “E (E represents a pKi value of 7 or below (Ki of 100 nM or above))”. For the same molecule, the “JAK 1 (pKi)” value at JAK1 is “E (E represents a pKi value of 7 or below (Ki of 100 nM or above))”. Besides, the figures for the IC50 in data set [1] and in data set [2] were 31.6 to 200 nM and less than 1000 nM, respectively. For the same molecule, the “Tyk 2 (pKi)” value at Tyk2 is reported as “E (E represents a pKi value of 7 or below (Ki of 100 nM or above))”. Further, the “JAK 3 (pKi)” value at JAK3 (setting [4]) is reported as “A (A represents a pKi value≥10 (Ki≤0.1 nM))”. In addition, at JAK3, the “JAK3 (pKi)-JAK1 (pKi)” value is on record as “A (A represents a value of 3 or above)”. For the same molecule, the “Caco Kp 10^−6 cm/sec” value in the data set on Caco-2 cell monolayers is “A (A represents a value below 5×10^−6 cm/sec)”. Besides, the partition ratio (Kp) in data set [3] was more than 200.

For `C=CC(=O)N1CCC(Oc2cc(-c3ccc(O)cc3)cn3cncc23)CC1` [Example 30], the “JAK 2 (pKi)” value on JAK2 was “E (E represents a pKi value of 7 or below (Ki of 100 nM or above))”. Also, at JAK1, the “JAK 1 (pKi)” value is “E (E represents a pKi value of 7 or below (Ki of 100 nM or above))”. For the same molecule, the IC50 in data set [1] is 31.6 to 200 nM. Further, the “Tyk 2 (pKi)” value on Tyk2 is listed as “E (E represents a pKi value of 7 or below (Ki of 100 nM or above))”. Also, the “JAK 3 (pKi)” value on JAK3 (setting [4]) was “A (A represents a pKi value≥10 (Ki≤0.1 nM))”. Moreover, the “JAK3 (pKi)-JAK1 (pKi)” value at JAK3 was “A (A represents a value of 3 or above)”. The “Caco Kp 10^−6 cm/sec” value with Caco-2 cell monolayers was “C (C represents a value between 10×10^−6 and 25×10^−6 cm/sec)”. Moreover, the concentration ratio (Kp) in data set [3] is more than 8.
